Assay results from patent publication US11376235B2, “Inhibitor of inflammasome activation” (KRACIE HOLDINGS, LTD., priority 2016, dated 2022).

Experiments:
NLRP3 inflammasome [1] = assay: Inflammasome activation by ATP stimulation in PMA-differentiated, LPS-treated THP1-Null cells (Test 1); format: cell-based, human; conditions: ATP 5 mM stimulation, arctigenin at concentrations of 10 μM and higher, 1 h pretreatment, vs Control without arctigenin, Dunnett's test
Description: (§1) THP1-Null cells (Invivogen) or THP-1 cells (JCRB Cell Bank), which are NLRP3 inflammasome reporter cell lines derived from human monocytic cells, were cultured in a RPMI medium containing 10% FBS and 4.5% glucose (hereinafter referred to as a THP1 culture medium, SIGMA). The cells were treated with 500 nM PMA (SIGMA) for 3 hours to differentiate the cells into macrophages, and the cells were washed with PBS twice and then used for the following experiment.
(§2) The THP1-Null cells or the THP-1 cells after the induction of differentiation were suspended in the THP1 culture medium at 1.0×10^6 cells/mL and seeded in a 96-well microplate at 180 μL per well (1.8×10^5 cells/well). […] The IL-1β concentrations of the culture supernatants were measured using IL-1β reporter cell line HEKBlue (trademark) IL-18/IL-1β cells (Invivogen) or the ELISA method. The caspase-1 concentrations of the culture supernatants were also measured by the ELISA method.
(§3) HEK Blue (trademark) IL-18/IL-1β cells were used for measuring the IL-1β concentrations of the medium supernatants collected after the ATP treatment. […] The absorbance of each well at 655 nm was measured using a microplate reader, and the IL-1β concentration was measured. […]
(§4) Caspase-1 was measured following the TDS of Quantikine (registered trademark) ELISA Human Caspase-1/ICE (R&D systems (trademark)). […]

NLRP3 inflammasome [2] = assay: Inflammasome activation by palmitic acid stimulation in PMA-differentiated, LPS-treated THP1-Null cells (Test 2); format: cell-based, human; conditions: palmitic acid 500 μM stimulation, 12 h, arctigenin 500 nM pretreatment, vs Control, Student's t-test, ELISA
Description: as §1, §2, §3, §4

NLRP3 inflammasome [3] = assay: Inflammasome activation by MSU stimulation in PMA-differentiated, LPS-treated THP1-Null cells (Test 3); format: cell-based, human; conditions: MSU 100 μg/mL stimulation, 3 h, vs Control, ELISA
Description: as §1, §2, §3, §4

AIM2 inflammasome = assay: Inflammasome activation by Poly(dA:dT) stimulation in PMA-differentiated, LPS-treated THP-1 cells (Test 4); format: cell-based, human; conditions: Poly(dA:dT)/LyoVec 5 μg/mL stimulation, 8 h, vs Control, Student's t-test, ELISA
Description: as §1, §2, §3, §4

[4] = stated as a fact, no test described; cited from earlier work

SMILES: COc1cc(C[C@H]2C(=O)OC[C@@H]2Cc2ccc(OC)c(OC)c2)ccc1O [arctigenin]
- caspase-1 amount (NLRP3 inflammasome [1]; ELISA, FIG. 2): decreased with significance
- released IL-1β amount (NLRP3 inflammasome [1]; HEK Blue IL-18/IL-1β reporter cells, FIG. 1): decreased with significance
- released IL-1β amount (NLRP3 inflammasome [2]; FIG. 3): decreased with significance
- caspase-1 amount (NLRP3 inflammasome [2]; FIG. 4): decreased with significance
- released IL-1β amount (NLRP3 inflammasome [3]; arctigenin at concentrations of 10 μM and higher, Dunnett's test, FIG. 5): decreased with significance
- caspase-1 amount (NLRP3 inflammasome [3]; arctigenin pretreatment, FIG. 6): decreased concentration-dependently
- caspase-1 amount (AIM2 inflammasome; arctigenin 250 nM pretreatment, FIG. 8): decreased with significance
- released IL-1β amount (AIM2 inflammasome; arctigenin 500 nM pretreatment, FIG. 7): decreased with significance
- solubility in water [4]: insoluble in water
